Measurements: US20200371122A1, “BIOMARKER FOR SENESCENT CELLS” (Buck Institute for Research on Aging, priority 2017, published 2020)

Test system: IMR-90 fibroblasts
Test: Sensitisation to IR-induced senescence by senescence-equivalent dose of 15d-PGJ2
Type: cell-based, human
Conditions: 1.4 μM
Excerpt: Senescence was induced by irradiation with 10 Gy of ionizing radiation. Non-senescent controls (proliferating or quiescent) were placed in the irradiator for an identical period of time without turning on the irradiator. Oncogene-induced senescence was induced via lentiviral overexpression of HRAS^V12, as described previously (Wiley et al. (2016) Cell Metab. 23: 303-314).
SA-Bgal activity was detected as described previously (Dimri et al. (1995) Proc. Natl. Acad. Sci. USA, 92: 9363-9367) using a commercial kit (Biovision).
For EdU labeling, cells were cultured with EdU (10 μM) for 24 h, fixed in 4% buffered formalin for 10 min, washed in PBS, and permeabilized in 0.5% Triton X-100 for 30 min. Cells were treated as instructed by the manufacturer Life Technologies Cat #C10337). For immunofluorescence, cells were blocked in 10% normal goat serum for 30 min, washed, and incubated overnight in antibodies to Ki67 (Abcam) or cleaved caspase 3 (Cell Signaling). Cell were then washed, incubated in fluorescent secondary antibodies, and mounted using vectashield mounting medium with DAPI.

`CCCCC/C=C/C=C1/C(=O)C=C[C@@H]1C/C=C\CCCC(=O)O` [15d-PGJ2] was tested, and the “SA-beta-galactosidase, EdU incorporation and cell number versus DMSO” value (10 Gy IR, 10 days) was “no differences”, the “senescence versus control cells” value (lower doses of IR, 10 days) was “more senescent relative to control cells” and the induction of senescence (no IR) was “did not induce senescence on its own”.
